Read-outs that look alike come from different tables or passages of the source. Positions of bridges follow the written chain, without caps; N, C: chain ends. Residues, ends and D or L forms follow the SMILES beside them. Chains are numbered I, II in the order given. No end group written: not given here. Ida = iminodiacetic acid linker, its two carboxyls bind the Lys side-chain amines of two peptides, giving a homodimer A value given as a limit tells only on which side of the number the result lay.

One test has as its system HUVECs. It is filed as cell-based. In outline:
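Proliferation read-out: BrdU incorporation after 48-hour culture (37 ° C, 5% CO2) with graded peptide doses. Cells were in EBM with 2% FCS at 5,000 per well, driven by VEGF (5 ng/ml) or bFGF (10 ng/ml), added after ≥12-hour attachment.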

In test [1] the test system is bFGF-induced angiogenesis in Matrigel plugs. Description: Murine Matrigel plug angiogenesis assay. It is filed as in vivo, C57B1/6 mice. The conditions noted are these: 10-12 days of treatment, hemoglobin in plugs vs +bFGF/Buffer control. The procedure: In order to assess the effect of the peptides in this invention on angiogenesis, an additional assay was used to assess antiangiogenic activity.
Briefly, Matrigel (BD Biosciences, San Jose, Calif.) is mixed with 0.5 μg/ml of bFGF. 0.5 ml of this Matrigel/bFGF mixture is then injected subcutaneously on the ventral abdominal surface at the level of the xiphoid process of C57B1/6 mice. Matrigel plugs, injected in absence of bFGF addition, are used as negative controls. Treatment with various peptides is initiated 12-18 hours later. Animals are treated by i.p. administration of peptides, dosed at 0.2mg/d of peptide dimers, and 1.4 mg/d of Pegylated peptide dimers. After 10-12 days of treatment, animals are euthanized, and the Matrigel plugs are surgically removed, and cleaned of mouse tissue, fascia, and fat. […] After centrifugation, supernatant for each plug is assayed for the presence of Hemoglobin using a Serum Hemoglobin analysis kit (Sigma Diagnostics, St. Louis, Mo.). Angiogenesis is defined as the fold increase of hemoglobin in the buffer control treated mouse Matrigel plugs, above the amount of hemoglobin in negative (−bFGF) control Matrigel plugs. For experimental peptide treated animals, the percent inhibition is defined as the inhibition seen when comparing positive control plugs (+bFGF/ Buffer treatment) with peptide treated plugs (+bFGF/ Peptide treatment).

Another test deals with MDA-MB-231 cells. The experiment in a line: Proliferation assay of tumor cells (BrdU incorporation), MDA-MB-231. The conditions noted are these: MDA-MB-231 proliferation, 48 hours, read-out: Inhibitory Activity (IC50 uM) MDA-MB-231. The format is cell-based. The procedure: (§1) The antiproliferative activity of selected peptides of the present invention was assessed on several tumor cell lines. Mouse Lewis lung carcinoma (LLC) cells were routinely cultured to near confluency in DMEM media with 10% FCS added. The cells were trypsinized and plated in a 96-well plate at 5,000 cells per well per 100 μl media supplemented with 2% FCS and antibiotics. MDA-MB-231 cells were routinely cultured to near confluency in advanced DMEM media supplemented with 10% FCS. The cells were allowed to adhere to the plate for at least 12 hours. Then, whole media and various concentrations of peptide, were added to the wells. The cells were cultured for 48 hours at 37 ° C. in a 5% CO2 atmosphere. Cell proliferation was determined using a bromo-deoxyuridine (BrdU) incorporation method as described by the manufacturer. Inhibition of cell proliferation, was assessed by BrdU incorporation.
(§2) The ability of representative peptides of this invention for their ability to inhibit various tumor cells line proliferation are listed below in Table 2.

The test system of test [2] is Mouse Lewis lung carcinoma (LLC) cells. Description: Proliferation assay of tumor cells (BrdU incorporation), LLC. The conditions noted are these: 48 hours, read-out: Inhibitory Activity (IC50 uM) LLC. The format is cell-based. The procedure:
as §1, §2
Background: Incorporation of labelled thymidine or its analogues reports DNA synthesis.

The mark [3] stands for this setting: HUVEC proliferation, bFGF at 10 ng/ml or VEGF at 5 ng/ml, 48 hours, BrdU incorporation, read-out: IC50 on HUVECs.
The mark [4] stands for this setting: Pegylated peptide dimers, i.p. 1.4 mg/d.

The IC50 is the concentration needed to halve the response being measured. For “167 (Ac-RRRRRQRVRIIFK; not fully specified (C-terminus); also: homodimer via Ida linker on Lys13 side chains) [compound 167]”, the IC50 with HUVECs (setting [3]) was below 10 µM. Besides, the “Matrigel Model % Inhibition” value in test [1] (peptide dimers, i.p. 0.2mg/d) was determined as 42.0%.

On to “228 (Ac-ARRRRQRVAIYFK; also: homodimer via Ida linker on side chain of Lys13) [compound 228]”, for which the IC50 in the test with HUVECs (setting [3]) is below 10 µM. The “Matrigel Model % Inhibition” value in test [1] (peptide dimers, i.p. 0.2mg/d) worked out at 55.0%.

As to “267 (Ac-RRRRRQAVAIYFK-NH2; not fully specified (residue 13); also: homodimer via Ida linker on Lys13 side chain) [compound 267]”, the IC50 in the test with HUVECs (setting [3]) is below 10 µM. Further, the “Matrigel Model % Inhibition” value in test [1] (peptide dimers, i.p. 0.2mg/d) is recorded as 36.0%.

Regarding “279 (Ac-RRRRRQRVRIYFK-NH2; not fully specified (residue 13); also: homodimer via Ida linker on Lys13 side chain) [compound 279]”, the IC50 in the test on HUVECs (setting [3]) was below 10 µM. Besides, the “Matrigel Model % Inhibition” value in test [1] (peptide dimers, i.p. 0.2mg/d) stood at 56.0%.

Consider “315 (Ac-ARRRRQAVAIYFK(Ida)-NH2; also: homodimer via Ida linker on Lys13 side chain) [compound 315]”, for which the IC50 in the test on HUVECs (setting [3]) was below 10 µM. Moreover, in test [1] (peptide dimers, i.p. 0.2mg/d), the “Matrigel Model % Inhibition” value is 52.0%.

Turning to “331 (Ac-ARRRRQRVAIYFK-NH2; not fully specified (residue 13); also: homodimer via Lys13 side chain, GP3 linker) [compound 331]”, the IC50 in the test on HUVECs (setting [3]) was below 10 µM. For the same molecule, in test [1] (peptide dimers, i.p. 0.2mg/d), the “Matrigel Model % Inhibition” value is reported as 44.0%.

Turning to “375 (Ac-RRRRRQRVRIIFK-NH2; not fully specified (residue 13); also: homodimer via Ida-PEG 30 kDa linker on Lys13 side chain) [compound 375]”, in the test with HUVECs (setting [3]), the IC50 is below 10 µM. For the same molecule, the “Matrigel Model % Inhibition” value in test [1] (setting [4]) is 46.0%.

With “376 (Ac-ARRRRQRVAIYFK-NH2; not fully specified (residue 13); also: homodimer via Ida-PEG 30 kDa linker on Lys13 side chain) [compound 376]”, in the test on HUVECs (setting [3]), the IC50 is below 10 µM. The “Matrigel Model % Inhibition” value in test [1] (setting [4]) came to 42.0%.

As to “381 (Ac-ARRRRQAVAIYFK-NH2; not fully specified (residue 13); also: homodimer via Ida-PEG 30 kDa linker on Lys13 side chain) [compound 381]”, the IC50 with HUVECs (setting [3]) was below 10 µM. Moreover, the “Matrigel Model % Inhibition” value in test [1] (setting [4]) was 51.0%.

For the molecule `CC[C@H](C)[C@H](NC(=O)[C@H](CCCNC(=N)N)NC(=O)[C@@H](NC(=O)[C@H](CCCNC(=N)N)NC(=O)[C@H](CCC(N)=O)NC(=O)[C@H](CCCNC(=N)N)NC(=O)[C@H](CCCNC(=N)N)NC(=O)[C@H](CCCNC(=N)N)NC(=O)[C@H](CCCNC(=N)N)NC(=O)[C@@H](N)CCCNC(=N)N)C(C)C)C(=O)N[C@H](C(=O)N[C@@H](Cc1ccccc1)C(=O)NCCCC[C@H](NC(=O)[C@H](Cc1ccccc1)NC(=O)[C@@H](NC(=O)[C@@H](NC(=O)[C@H](CCCNC(=N)N)NC(=O)[C@@H](NC(=O)[C@H](CCCNC(=N)N)NC(=O)[C@H](CCC(N)=O)NC(=O)[C@H](CCCNC(=N)N)NC(=O)[C@H](CCCNC(=N)N)NC(=O)[C@H](CCCNC(=N)N)NC(=O)[C@H](CCCNC(=N)N)NC(=O)[C@@H](N)CCCNC(=N)N)C(C)C)[C@@H](C)CC)[C@@H](C)CC)C(N)=O)[C@@H](C)CC` [Peptide 132] (I: H-RRRRRQRVRIIFK-NH2 / II: H-RRRRRQRVRIIF; amide I:13-II:C; N-terminus assumed), the IC50 (in the test on HUVECs (48 h); in the test on MDA-MB-231 cells; in test [2]) was below 10 µM in each case.

For KTKRKRKKQRVKIAYEEIFVQAA [compound 45], the IC50 in the test on HUVECs (setting [3]) lay within 10 to 30 µM.

For KTKRKRKKQRVKIAYEEIFVQN [compound 25], the IC50 with HUVECs (setting [3]) was below 10 µM.

Regarding KTKRKRKKQRVKIAYEEIM [compound 42], in the test with HUVECs (setting [3]), the IC50 was above 30 µM.

KTKRKRKKQRVKIAYEENM [compound 41]: the IC50 in the test with HUVECs (setting [3]) was above 30 µM.

For KTKRKRKKQRVKIAYEEVFVKNM [compound 6], the IC50 in the test on HUVECs (setting [3]) is below 10 µM.

On to KTKRKRKKQRVKIAYEQNM [compound 40], for which the IC50 in the test with HUVECs (setting [3]) was above 30 µM.

KTKRKRKKQRVKIAYVQNM [compound 39]: in the test on HUVECs (setting [3]), the IC50 was in the range of 10 to 30 µM.

For KTKRKRKKQRVKIIAVQNM [compound 109], the IC50 with HUVECs (setting [3]) is above 30 µM.

Take KTKRKRKKQRVKIIF [compound 79]: the 50% inhibitory concentration (IC50) in the test on HUVECs (setting [3]) was above 30 µM.

For KTKRKRKKQRVKIIFAQNM [compound 108], the IC50 in the test on HUVECs (setting [3]) lay in the range of 10 to 30 µM.

KTKRKRKKQRVKIIFV [compound 85]: the IC50 in the test on HUVECs (setting [3]) is below 10 µM.

Regarding KTKRKRKKQRVKIIFVANM [compound 107], the IC50 with HUVECs (setting [3]) is below 10 µM.

With KTKRKRKKQRVKIIFVQAM [compound 106], the IC50 in the test with HUVECs (setting [3]) is below 10 µM.

Consider KTKRKRKKQRVKIIFVQNA [compound 105], for which, in the test with HUVECs (setting [3]), the IC50 is below 10 µM.

Regarding KTKRKRKKQRVKIIFVQNM [compound 33], the IC50 with HUVECs (setting [3]) is below 10 µM.

For KTKRKRKKQRVKRAYEEIF [compound 136], the IC50 in the test with HUVECs (setting [3]) was above 30 µM.

Consider KTKRKRKKQRYEEIFVQNM [compound 30], for which the IC50 in the test on HUVECs (setting [3]) was above 30 µM.

KTKRKRVKIAYEEIFVQNM [compound 52]: in the test on HUVECs (setting [3]), the IC50 was above 30 µM.

For “NKRKKQRVKIIFVKVFIIKVRQKKRKN [compound 151]”, the IC50 in the test on HUVECs (setting [3]) is below 10 µM.

RKKQQRVKIAYEEIFV [compound 78]: the IC50 in the test on HUVECs (setting [3]) is above 30 µM.

As to RKKQRVKIAYEEIF [compound 69], in the test on HUVECs (setting [3]), the IC50 was above 30 µM.

Turning to RKKQRVKIAYEEIFV [compound 64], the IC50 in the test on HUVECs (setting [3]) lay within 10 to 30 µM.

With RKKQRVKIAYEEIFVKNM [compound 11], the IC50 with HUVECs (setting [3]) is above 30 µM.

On to RKKQRVKIAYEEIFVQNM [compound 23], for which the IC50 in the test with HUVECs (setting [3]) is 10 to 30 µM.

As for RKKQRVKIIF [compound 84], in the test on HUVECs (setting [3]), the IC50 is above 30 µM.

As to RKKQRVKIIFV [compound 89], the IC50 with HUVECs (setting [3]) was above 30 µM.

Regarding RKRKKQQRVKIAYEEIFV [compound 76], the IC50 in the test with HUVECs (setting [3]) was above 30 µM.

Take RKRKKQRVKIAYEEIF [compound 67]: the IC50 with HUVECs (setting [3]) is above 30 µM.

As to RKRKKQRVKIAYEEIFV [compound 62], in the test with HUVECs (setting [3]), the IC50 was above 30 µM.

RKRKKQRVKIAYEEIFVKNM [compound 4]: in the test on HUVECs (setting [3]), the IC50 was 10 to 30 µM.

With RKRKKQRVKIAYEEIFVQNM [compound 21], the IC50 in the test on HUVECs (setting [3]) is above 30 µM.

Regarding RKRKKQRVKIIF [compound 82], the IC50 in the test with HUVECs (setting [3]) is above 30 µM.

On to RKRKKQRVKIIFV [compound 90], for which the IC50 in the test on HUVECs (setting [3]) was 10 to 30 µM.

Take RVKIAYEEIFVQNM [compound 44]: the IC50 in the test on HUVECs (setting [3]) was above 30 µM.

Turning to TKRKRKKQQRVKIAYEEIFV [compound 74], in the test with HUVECs (setting [3]), the IC50 was above 30 µM.

Consider TKRKRKKQRVKIAYEEIF [compound 65], for which the IC50 in the test on HUVECs (setting [3]) was above 30 µM.

With TKRKRKKQRVKIAYEEIFV [compound 60], in the test with HUVECs (setting [3]), the IC50 fell in the range of 10 to 30 µM.

As to TKRKRKKQRVKIAYEEIFVKNM [compound 2], the IC50 in the test with HUVECs (setting [3]) was in the range of 10 to 30 µM.

For TKRKRKKQRVKIAYEEIFVQNM [compound 19], the IC50 in the test on HUVECs (setting [3]) is above 30 µM.

On to TKRKRKKQRVKIIF [compound 80], for which the 50% inhibitory concentration (IC50) in the test with HUVECs (setting [3]) was above 30 µM.

TKRKRKKQRVKIIFV [compound 86]: the IC50 in the test on HUVECs (setting [3]) lay within 10 to 30 µM.

Take VKIAYEEIFVQNM [compound 43]: the IC50 in the test on HUVECs (setting [3]) was above 30 µM.

Take YGRKKRRQRRR [compound 445]: the IC50 with HUVECs (setting [3]) was above 30 µM.

The values are drawn from patent publication US20070203066A1, “Compositions and methods for inhibiting cellular proliferation” (priority 2005, published 2007).
